US20160102365A1, “ASSAYS, METHODS AND KITS FOR ANALYZING SENSITIVITY AND RESISTANCE TO ANTI-CANCER DRUGS, PREDICTING A CANCER PATIENT'S PROGNOSIS, AND PERSONALIZED TREATMENT STRATEGIES” (UNIVERSITY OF MIAMI, priority 2013, published 2016)

How the values were obtained:
Format in all cases: cell-based, human
OCI ovarian tumor lines = assay: Panel of oncology drugs: viable cells by Alamar Blue, OCI versus ATCC ovarian tumor lines; details: 5000 cells/well, WIT-OC medium, serial dilutions, 72-144 hrs incubation
Experimental: In these experiments, ATCC ovarian tumor lines (SKOV3, OV90, TOV-1120 and A2780) and OCI ovarian tumor lines (FCI-P2p, OCI-P5x, OCI-P2a, OCI-C4p, OCI-P7a, OCI-05x, OCI-CSp, FCI-P1p, OCI-P9a1, OCI-P8p, OCI-P3a, OCI-P1a) were plated in WIT-OC medium (5000 cells/well) in 96 well plates. The next day serial dilutions of Taxol, Vincristine, U0126, PJ34, Adriamycin, AS703026, 5-fluorouracil, Cisplatin, PLX4720 and PJ34 were added. The number of viable cells was measured as 590/530 florescence via Alamar Blue after 72-144 hrs incubation, depending on drug. […] Thus, the methods described herein of analyzing sensitivity of a subject's cancerous tumor to an oncology drug and developing a personalized therapy for the subject can be used for any drug.

OCI and SOC cell lines = assay: Drug sensitivity experiments, response compared between OCI and SOC lines in WIT-OC medium
Experimental: (§1) Drug sensitivity experiments: The relative sensitivities of OCI and SOC cell lines to chemotherapy drugs was measured by seeding an equal number of cells in six replicates in 96-well black-walled clear bottom Corning plates at 3000 cells/well, and allowing attachment in WIT-OC for 12 h. Both OCI and SOC cell lines were exposed to drugs in WIT-OC medium. The cell lines were cultured in the presence of drug or vehicle control for 96 h. The fraction of metabolically active cells after drug treatment was measured by incubation with 2:10 (v/v) CellTiter-Blue reagent (Promega Cat#G8081) in media for 2 h, and the reaction was stopped by addition of 3% SDS. Fluorescence was measured in a SpectraMax M5 plate reader (Molecular Devices, CA) using SoftMax software (555EX/585EM).

OCI lines in Cluster 2 = assay: Taxol drug sensitivity of the subset of OCI lines in Cluster 2; details: WIT-OC medium; similar to SOC lines
Experimental: FIG. 2: Gene expression profiling and Taxol Response of ovarian cancer cell lines identifies two major classes. A) Taxol response of OCI and SOC cell lines in mRNA/RPPA (Reverse Phase Protein Analysis) Cluster 1 vs. Cluster 2. The OCI and SOC lines were plated in triplicates in WIT-OC medium (5000 cells/well) in 96 well plates. The next day 20 nM Taxol was added and metabolic activity was measured as 590/530 fluorescence via Alamar Blue after 5 days. OCI cell lines in mRNA/RPPA Cluster 1 (blue bars), SOC cell lines in Cluster 2 (red bars), OCI lines in Cluster 2 (white bars). The results are representative of more than three four different experiments. B) Proteins that are over-expressed in OCI mRNA/RPPA Cluster 1. […]
as §1, with “Both OCI and SOC cell lines were exposed to drugs in WIT-OC medium. The cell lines were cultured in the presence of drug or vehicle control for 96 h.” left out, “(555EX/585EM). […]” for “(555EX/585EM).”

[1] = tested on: OCI lines in mRNA/RPPA Cluster 1; assay: Taxol drug sensitivity (metabolic activity / viability) of OCI lines in mRNA/RPPA Cluster 1 compared to SOC lines
Experimental: FIG. 2: Gene expression profiling and Taxol Response of ovarian cancer cell lines identifies two major classes. A) Taxol response of OCI and SOC cell lines in mRNA/RPPA (Reverse Phase Protein Analysis) Cluster 1 vs. Cluster 2. The OCI and SOC lines were plated in triplicates in WIT-OC medium (5000 cells/well) in 96 well plates. The next day 20 nM Taxol was added and metabolic activity was measured as 590/530 fluorescence via Alamar Blue after 5 days. OCI cell lines in mRNA/RPPA Cluster 1 (blue bars), SOC cell lines in Cluster 2 (red bars), OCI lines in Cluster 2 (white bars). The results are representative of more than three four different experiments. B) Proteins that are over-expressed in OCI mRNA/RPPA Cluster 1. […] The data are presented in matrix format in which rows represent cell lines and columns represent antibody probes for each protein. The red and green colors reflect relative high and low expression levels respectively. C) Hierarchical clustering of mRNA data from OCI and SOC lines. […]
as §1, with “Both OCI and SOC cell lines were exposed to drugs in WIT-OC medium. The cell lines were cultured in the presence of drug or vehicle control for 96 h.” left out
Drug sensitivity experiments: The relative sensitivities of OCI and SOC cell lines to Taxol was measured by seeding 3000 cells/well in six replicates in 96-well black-walled clear bottom Corning plates and allowing attachment in WIT-OC for 12 h. […] The fraction of metabolically active cells after drug treatment was measured by incubation with 2:10 (v/v) CellTiter-Blue reagent (Promega Cat#G8081) in media for 2 h, and the reaction was stopped by addition of 3% SDS. […]

SMILES: O=c1[nH]cc(F)c(=O)[nH]1 [5-fluorouracil]
- Resistance of OCI lines to inhibition of cell proliferation compared to standard (ATCC) cell lines (OCI ovarian tumor lines): more resistant

SMILES: COc1cccc2c1C(=O)c1c(O)c3c(c(O)c1C2=O)C[C@@](O)(C(=O)CO)C[C@@H]3O[C@H]1C[C@H](N)[C@H](O)[C@H](C)O1 [Adriamycin]
- Resistance of OCI lines to inhibition of cell proliferation compared to standard (ATCC) cell lines (OCI ovarian tumor lines): more resistant

SMILES: N.N.[Cl][Pt][Cl] [Cisplatin]
- Difference in drug response between OCI and SOC lines (OCI and SOC cell lines): did not find a significant difference

SMILES: CN(C)CC(=O)Nc1ccc2[nH]c(=O)c3ccccc3c2c1 [PJ34]
- Resistance of OCI lines to inhibition of cell proliferation compared to standard (ATCC) cell lines (OCI ovarian tumor lines): more resistant

SMILES: CC(=O)O[C@H]1C(=O)[C@@]2(C)[C@H]([C@H](OC(=O)c3ccccc3)[C@]3(O)C[C@H](OC(=O)[C@H](O)[C@@H](NC(=O)c4ccccc4)c4ccccc4)C(C)=C1C3(C)C)[C@]1(OC(C)=O)CO[C@@H]1C[C@@H]2O [Taxol]
- Sensitivity to Taxol of OCI lines in Cluster 2 compared to OCI lines in Cluster 1 (OCI lines in Cluster 2): more sensitive
- IC50 ([1]; Homo sapiens, OCI lines plated in WIT-OC medium): 10 to 100 nM
- IC50 fold higher than the IC50 values in SOC lines in mRNA/RPPA Cluster 2 ([1]; OCI Cluster 1 vs SOC Cluster 2, WIT-OC medium): 5-10 fold
- Sensitivity to Taxol of OCI lines in Cluster 1 relative to SOC lines in Cluster 2 ([1]; WIT-OC medium, confirmed with a full dose-response curve): less sensitive

SMILES: N#CC(=C(/N)Sc1ccccc1N)/C(C#N)=C(\N)Sc1ccccc1N [U0126]
- Resistance of OCI lines to inhibition of cell proliferation compared to standard (ATCC) cell lines (OCI ovarian tumor lines): more resistant

SMILES: CC[C@]1(O)C[C@H]2CN(CCc3c([nH]c4ccccc34)[C@@](C(=O)OC)(c3cc4c(cc3OC)N(C=O)[C@H]3[C@@](O)(C(=O)OC)[C@H](OC(C)=O)[C@]5(CC)C=CCN6CC[C@]43[C@@H]65)C2)C1 [Vincristine]
- Difference in drug response between OCI and SOC lines (OCI and SOC cell lines): similarly different
